From patent US12233099B2, “Composition for promoting myogenesis, containing processed ginseng extract” (GREEN CROSS WELLBEING CORPORATION, priority 2018, dated 2025) come the findings set out here.

Common to all, as to type: cell-based, mouse
Test [1] deals with phosphorylated Smad2 (pSmad2). Kind of test: Smad2 phosphorylation in myostatin-treated myotubes (Western blotting). To be noted: myotubes treated with myostatin; extract 0, 10, 30, and 100 μg/ml. Here is the method: The myotubes differentiated by the same method as in Test Example 5-2 were treated with myostatin and the processed ginseng extract of Example 2 to secure cells, and the cells were subjected to Western blotting. The treatment concentrations of the processed ginseng extract of Example 2 was 0, 10, 30, and 100 μg/ml. A lysis buffer was added to the secured cells to lyse cells, and then centrifugation was used to secure proteins of the supernatant. The secured proteins of the supernatant were separated through sodium dodecyl sulfate polyacrylamide gel electrophoresis (SDS-PAGE) and transferred to a polyvinylidene fluoride (PVDF) membrane. The membrane was blocked by a blocking solution, treated with a primary antibody in order to determine the amounts of Smad2 and phosphorylated Smad2 (pSmad2), and then treated with a secondary antibody to the primary antibody. Then, enhanced chemiluminescence (ECL, Amersham) was used to examine protein expression.

The test system of test [2] is MAFbx. Briefly: MAFbx expression in myostatin-treated myotubes (Western blotting). To be noted: extract 30 μg/ml. The protocol:
(§1) The myotubes differentiated by the same method as in Test Example 5-2 were treated with myostatin and the processed ginseng extract of Example 2 to secure cells. The treatment concentrations of the processed ginseng extract of Example 2 was 30 μg/ml. The secured cells were subjected to Western blotting using antibodies corresponding to MyoD and MAFbx by the same method as in Test Example 6-1, and the results are shown in FIG. 8.
In general terms: Immunoblotting shows a protein as a band on a membrane.

Test [3] relates to MyoD. Kind of test: MyoD expression in myostatin-treated myotubes (Western blotting). To be noted: extract 30 μg/ml. The protocol: as §1
Test [4] has as its system myotubes differentiated from C2C12. Briefly: Myostatin-induced myoatrophy cell model (myotube breadth). Here is the method:
After myotubes were differentiated by the same method as in the induction of myotube differentiation of Test Example 1, the cells were added in DMEM not containing FBS, and cultured for 3 hours. After culturing, the cells were treated with the myogenesis inhibitor myostatin (MSTN) at different concentrations for 24 hours, and the change in breadth of myotubes was measured in order to investigate whether myoatrophy was induced. The change in breadth of myotubes was measured by the same method as in Test Example 4, and after the immunofluorescent staining, images of myotubes were observed using the fluorescent substance attached to MHC through a microscope, and the Image J program was used to determine the breadth of myotubes.
To investigate the myoatrophy inhibitory effect of the processed ginseng extracts of the present invention, myoatrophy was induced by the same method as the construction method of myoatrophy animal cell models in Test Example 5-1, and then the change in myotube breadth was observed. The myotubes were treated with 0.4 μg/0 myostatin (MSTN) and 30 μg/0 the processed ginseng extract of Example 2 alone or in combination, and the myotubes not treated with myostatin and the processed ginseng extract of Example 2 were used as a control group.

Consider “myostatin: myogenesis inhibitor protein of the TGF-β group, used to induce myotube atrophy”, for which, in test [1], the “Smad2 phosphorylation (pSmad2)” value was “increased”. Besides, in test [2], the “MAFbx expression (compared with GAPDH)” value is reported as “increase in MAFbx expression”. Further, the “MyoD expression (compared with GAPDH)” value in test [3] is listed as “reduction in MyoD expression”. Also, in test [4] (30 μg/0 Example 2 extract or 0.4 μg/0 myostatin alone), the “myotube breadth compared with the control group, treatment alone” value is reported as “reduced”. For the same substance, the “myostatin concentration giving greatest reduction in breadth of myotubes” value in test [4] (24 hours) came to 0.4 μg/0. The “breadth of myotubes compared with myotubes not treated with myostatin” value in test [4] (myostatin at different concentrations for 24 hours) was “reduced in breadth of myotubes with the increase of the treatment concentration”.
